Assay results taken from paper PMC11085086, “Microwave-Assisted Atom Transfer Radical Cyclization in the Synthesis of 3,3-Dichloro-γ- and δ-Lactams from N-Alkenyl-Tethered Trichloroacetamides Catalyzed by RuCl2(PPh3)3 and Their Cytotoxic Evaluation” (Molecules, 2024).
Values after ≈ are worked out from the molar mass of the structure shown. Each block holds one compound with its values, some of them ahead of it.

Experiments:
[1] = Hemolysis assay with human erythrocyte suspension; type: cell-based; conditions: human, washed human erythrocyte suspension, PBS pH 7.4, read-out: degree of hemolysis
Procedure: Human blood samples were obtained from the Banc de Sang i Teixits de Barcelona (Spain) from the Catalan Department of Health. Blood was deposited in tubes with the anticoagulant EDTA-K3. Blood samples were centrifuged at 3000 rpm and 4 °C for 10 min (Megafuge 2.0 R. Heraeus Instruments, Hanau, Germany) to induce sedimentation. Plasma was extracted with a Pasteur pipette. Next, the residual pellet was washed with PBS at pH 7.4. This procedure was repeated three times to remove residual leukocytes and platelets and to concentrate the erythrocytes. Following the last wash, the erythrocyte suspension was diluted (1:1) in PBS at pH 7.4 to obtain a suitable erythrocyte suspension (cell density of 8 × 10^9 cell/mL).
The hemolysis assay determined the capability of different compounds to induce the hemolysis of the erythrocyte membrane. Stock solutions of each compound at 1 mg/mL in PBS at pH 7.4 were prepared. Different volumes (10–80 μL) were placed in polystyrene tubes, and an aliquot of 25 µL of the erythrocyte suspensions was added to each tube. The final volume was 1 mL. The tubes were incubated at room temperature under rotatory conditions. Then, the tubes were centrifuged at 10,000 rpm for 5 min. The supernatants’ absorbance at 540 nm (Shimadzu UV-160A, Shimadzu, Duisburg, Germany) was compared with that of the positive (erythrocytes hemolyzed with distilled water) and negative (erythrocyte suspension in PBS at pH 7.4.) controls.
The degree of hemolysis was determined using the following equation:Hemolysis (%) = 100 × (Abs − Abs0)/(Abs100 − Abs0) where Abs, Abs0 and Abs100 are the absorbance of the test samples, of the suspension treated with isotonic phosphate–buffered saline (PBS) and of the suspension of complete hemolysis treated with distilled water, respectively.

[2] = Cell viability assay, MTT endpoint, 3T3; type: cell-based, murine; conditions: mouse, 3T3 fibroblasts, 3T3, 250 µg/mL, 24 h
Procedure: (§1) The murine Swiss albino fibroblasts (3T3), the human breast adenocarcinoma (MCF-7), the human epithelial carcinoma (HeLa) and the squamous cell carcinoma (A431) cell lines were obtained from Celltec UB. Cells were grown in DMEM medium (4.5 g/L glucose) supplemented with 10% (v/v) FBS, 2 mM L-glutamine, 100 U/mL penicillin and 100 µg/mL streptomycin at 37 °C, 5% CO2. Cells were routinely cultured in 75 cm^2 culture flasks and were trypsinized using trypsin–EDTA when the cells reached approximately 80% confluence. The trypan blue assay, which allows for a direct identification and enumeration of the live (unstained) and dead (blue) cells in the cell population, was used to evaluate the viability of the cells in the cell suspension obtained.
(§2) 3T3 (1 × 10^5 cells/mL), A431, HeLa and MCF-7 cells (5 × 10^4 cells/mL) were grown at defined densities in the 60 central wells of a 96-well plate. Cells were incubated for 24 h in 5% CO2 at 37 °C. Then, the spent medium was removed, and cells were incubated for 24 h with their corresponding compound solutions (1 mg/mL) previously diluted in a minimum amount of DMF (dimethylformamide) and then in DMEM medium supplemented with 5% FBS (100 µL) at the required concentration range (10–250 µg/mL). The viability of the cells upon incubation with the lactam derivatives was assayed using 2 different endpoints: NRU and MTT.
(§3) Only living cells can reduce the yellow tetrazolium salt 3-(4,5-dimethyl-2-thiazolyl)-2,5-diphenyltetrazolium bromide (MTT) to insoluble purple formazan crystals. After a 24 h incubation of the cells with their corresponding NPs, the medium was removed and 100 µL of MTT (Sigma-Aldrich, St. Louis, USA) in PBS (5 mg/mL) diluted 1:10 in culture medium without phenol red and without FBS (Lonza, Verviers, Belgium) was added to the cells. After 3 h of incubation, the medium was removed. Thereafter, 100 µL of DMSO (Sigma-Aldrich, St. Louis, MO, USA) was added to each well to dissolve the purple formazan crystals. Agitation and determination of the absorbance of the extracted solution were performed under the same conditions as described in NRU Assay section. Finally, the effect of each treatment was calculated as the percentage of tetrazolium salt’s reduction by viable cells relative to control cells (cells without any treatment).
(§4) The corresponding half-maximal inhibitory concentration (IC50) values for the different formulations as a function of the cell line and endpoint were determined from the fitting of concentration-dependent viability curves. The corresponding selectivity indexes toward tumoral cells were calculated using the following ratio: SI = IC50 (non-tumoral cell line)/IC50 (tumoral cell line) where 3T3 fibroblasts were used as close representative cells under non-tumoral conditions. Moreover, pseudo selectivity indexes toward tumoral cells were calculated considering the discrete cellular responses at the maximum tested concentration (250 µg/mL).

[3] = system: murine Swiss albino fibroblasts (3T3); test: Cell viability assay, MTT endpoint, 3T3; type: cell-based; conditions: Mus musculus, Fibroblast, 3T3, 24 h incubation, 10–250 µg/mL
Procedure: as §1, §2, §3, §4

[4] = Cell viability assay, MTT endpoint, A431; type: cell-based; conditions: human, A431 squamous cell carcinoma cells, A431, highest assayed concentration 250 µg/mL, 24 h
Procedure: as §1, §2, §3, §4

[5] = system: squamous cell carcinoma (A431) cell line; test: Cell viability assay, MTT endpoint, A431; type: cell-based
Procedure: as §1, §2, §3, §4

[6] = Cell viability assay, MTT endpoint, HeLa; type: cell-based, human; conditions: human, HeLa cells, HeLa, 250 µg/mL, 24 h
Procedure: as §1, §2, §3, §4

[7] = system: human epithelial carcinoma (HeLa) cell line; test: Cell viability assay, MTT endpoint, HeLa; type: cell-based
Procedure: as §1, §2, §3, §4

[8] = system: human breast adenocarcinoma (MCF-7) cell line; test: Cell viability assay, MTT endpoint, MCF-7; type: cell-based; conditions: MTT
Procedure: as §1, §2, §3, §4

[9] = system: murine Swiss albino fibroblasts (3T3); test: Cell viability assay, NRU endpoint, 3T3; type: cell-based; conditions: Mus musculus, Fibroblast, 3T3, 24 h incubation, 10–250 µg/mL
Procedure: as §1, §2
(§5) The neutral red uptake (NRU) assay is based on the accumulation of dye in the lysosomes of viable cells. After the cells were incubated for 24 h with the corresponding systems, the medium was removed, and the solutions were incubated with the NR dye (Sigma-Aldrich, St. Louis, MO, USA) solution (50 µg/mL) dissolved in the medium, without FBS and without phenol red (Lonza, Verviers, Belgium), for 3 h. Cells were then washed with sterile PBS, followed by the addition of 100 µL of a solution containing 50% absolute ethanol and 1% acetic acid in distilled water to extract the dye. To promote the total dissolution of the dye, plates were placed in a microtiter-plate shaker for 5 min at room temperature. The absorbance of the resulting solutions was measured at 550 nm (Bio-Rad 550 microplate reader, Bio-Rad California, Hercules, CA, USA). Finally, the effect of each treatment was calculated as the percentage of dye uptake by viable cells relative to the control cells (cells without any treatment).
as §4

[10] = system: squamous cell carcinoma (A431) cell line; test: Cell viability assay, NRU endpoint, A431; type: cell-based; conditions: A431 compared to 3T3, 250 µg/mL, 24 h
Procedure: as §1, §2, §5, §4

[11] = system: human epithelial carcinoma (HeLa) cell line; test: Cell viability assay, NRU endpoint, HeLa; type: cell-based; conditions: 24 h incubation, 10–250 µg/mL
Procedure: as §1, §2, §5, §4

[12] = system: human breast adenocarcinoma (MCF-7) cell line; test: Cell viability assay, NRU endpoint, MCF-7; type: cell-based; conditions: Homo sapiens, MCF7, 24 h incubation, 10–250 µg/mL
Procedure: as §1, §2, §5, §4

[13] = Cell viability assay, NRU endpoint, cell line not specified; type: cell-based; conditions: up to 250 µg/mL, read-out: minimum cell viability values
Procedure: as §1, §2, §5

[14] = system: 3T3, A431, HeLa and MCF-7 cell lines; test: Cell viability assays (MTT and NRU), endpoint and cell line not specified; type: cell-based; conditions: range over cell lines; read-out: lowest IC50 values as a function of cell line
Procedure: as §1, with “The trypan blue assay, which allows for a direct identification and enumeration of the live (unstained) and dead (blue) cells in the cell population, was used to evaluate the viability of the cells in the cell suspension obtained.” left out
The neutral red uptake (NRU) assay is based on the accumulation of dye in the lysosomes of viable cells. […] The absorbance of the resulting solutions was measured at 550 nm (Bio-Rad 550 microplate reader, Bio-Rad California, Hercules, CA, USA). Finally, the effect of each treatment was calculated as the percentage of dye uptake by viable cells relative to the control cells (cells without any treatment).
Only living cells can reduce the yellow tetrazolium salt 3-(4,5-dimethyl-2-thiazolyl)-2,5-diphenyltetrazolium bromide (MTT) to insoluble purple formazan crystals. […] Agitation and determination of the absorbance of the extracted solution were performed under the same conditions as described in NRU Assay section. Finally, the effect of each treatment was calculated as the percentage of tetrazolium salt’s reduction by viable cells relative to control cells (cells without any treatment). […]

- melting point: 116 to 118 °C
SMILES: O=C1N(Cc2ccccc2)[C@@H]2CC[C@@H](Cl)[C@@H](C2)C1(Cl)Cl (racemic) [2k, (1RS,5RS,6RS)-2-Benzyl-4,4,6-trichloro-2-azabicyclo[3.3.1] nonan-3-one]

- melting point: 113 to 114 °C
SMILES: C[C@@H](Cl)[C@H]1CN(C(C)(C)C)C(=O)C1(Cl)Cl (racemic) [epi-2g, (RS)-1-(tert-Butyl)-3,3-dichloro-4-((RS)-1-chloroethyl)pyrrolidin-2-one]

- MTT IC50 A431 ([5]; A431, 24 h incubation, 10–250 µg/mL): 126 µg/mL
- IC50 ([5]; Homo sapiens, A-431, 24 h, A431, 24 h incubation, 10–250 µg/mL): 192 µg/mL (≈ 743 µM)
- MTT IC50 Hela ([7]; HeLa, 24 h incubation, 10–250 µg/mL): 109 µg/mL
- IC50 ([7]; Homo sapiens, HeLa, 24 h, 24 h incubation, 10–250 µg/mL): 195 µg/mL (≈ 754 µM)
- IC50 ([8]; Homo sapiens, MCF7, 24 h incubation, 10–250 µg/mL): > 250 µg/mL
- IC50 [11]: > 250 µg/mL
- IC50 [12]: > 250 µg/mL
SMILES: CC(C)(C)N1CC(CCl)C(Cl)(Cl)C1=O (centres unmarked) [2a, 1-(tert-Butyl)-3,3-dichloro-4-(chloromethyl)pyrrolidin-2-one]
- hemolysis at 10 µg/mL ([1]; 10 µg/mL): 0.02%
- hemolysis at 80 µg/mL ([1]; 80 µg/mL): ~0.07%
- viability at 24 h, 250 µg/mL [2]: 15%
- IC50 [3]: 172 µg/mL (≈ 665 µM)
- viability at 24 h, 250 µg/mL [4]: 5%
- SI250 (selective toxicity at 250 µg/mL) ([5]; A431 compared to 3T3, 250 µg/mL, 24 h): 3.3
- MTT SI A431 ([5]; SI = IC50 (3T3)/IC50 (A431)): 1.4
- viability at 24 h, 250 µg/mL [6]: 15%
- MTT SI HeLa ([7]; SI = IC50 (3T3)/IC50 (HeLa)): < 1
- MTT SI MCF7 ([8]; SI = IC50 (3T3)/IC50 (MCF7)): <0.69
- IC50 [9]: > 250 µg/mL
- SI250 (selective toxicity at 250 µg/mL) [10]: 2.2
- viability at 24 h [13]: 30%
- IC50 [14]: 100 to 250 µg/mL (≈ 387 to 967 µM)
